ChEMBL document CHEMBL1201862, “PubChem BioAssay data set” (2004)
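Assay format: 96-well plates, 48-hour exposure. Here, GI50 denotes the concentration required for 50% inhibition of growth.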 Calls of active or inactive are those of the source. Rule as the data show it: active = GI50 up to about 1.1 µM and inactive = higher.

How the values were obtained:
Experiment in all cases: NCI anticancer screen, dose series, 48 h
HCT-116 = tested on: HCT-116
Malme-3M = tested on: Malme-3M
SF-295 = tested on: SF-295
RXF 631 = tested on: RXF 631
OVCAR-4 = tested on: OVCAR-4
786-0 = tested on: 786-0
DU-145 = tested on: DU-145
HL-60 = tested on: HL-60
PC-3 = tested on: PC-3
SR = tested on: SR
OVCAR-5 = tested on: OVCAR-5
ACHN = tested on: ACHN
NCI-H522 = tested on: NCI-H522
HOP-18 = tested on: HOP-18
CAKI-1 = tested on: CAKI-1
RXF 393 = tested on: RXF 393
SNB-75 = tested on: SNB-75
SNB-19 = tested on: SNB-19
NCI-H226 = tested on: NCI-H226
NCI-H460 = tested on: NCI-H460
RPMI-8226 = tested on: RPMI-8226
SK-MEL-28 = tested on: SK-MEL-28
A498 = tested on: A498
A549 = tested on: A549
EKVX = tested on: EKVX
NCI-H23 = tested on: NCI-H23
UO-31 = tested on: UO-31
SK-OV-3 = tested on: SK-OV-3
UACC-257 = tested on: UACC-257
IGROV-1 = tested on: IGROV-1
SF-539 = tested on: SF-539
DMS-114 = tested on: DMS-114
CCRF-CEM = tested on: CCRF-CEM
SW-620 = tested on: SW-620
Hs-578T = tested on: Hs-578T
SK-MEL-5 = tested on: SK-MEL-5
SNB-78 = tested on: SNB-78
MDA-MB-231 = tested on: MDA-MB-231
SN12C = tested on: SN12C
HCT-15 = tested on: HCT-15
MDA-MB-435 = tested on: MDA-MB-435
COLO 205 = tested on: COLO 205
BT-549 = tested on: BT-549
SF-268 = tested on: SF-268
MCF7 = tested on: MCF7
M14 = tested on: M14
OVCAR-3 = tested on: OVCAR-3
LXFL 529 = tested on: LXFL 529
KM12 = tested on: KM12
MOLT-4 = tested on: MOLT-4
SK-MEL-2 = tested on: SK-MEL-2
U-251 = tested on: U-251
UACC-62 = tested on: UACC-62
M19-MEL = tested on: M19-MEL
HOP-92 = tested on: HOP-92
K562 = tested on: K562
OVCAR-8 = tested on: OVCAR-8
DLD-1 = tested on: DLD-1
TK-10 = tested on: TK-10
DMS-273 = tested on: DMS-273
LOX IMVI = tested on: LOX IMVI
HOP-62 = tested on: HOP-62
HT-29 = tested on: HT-29
T47D = tested on: T47D
KM-20L2 = tested on: KM-20L2
MDA-N = tested on: MDA-N
HCC 2998 = tested on: HCC 2998
XF498 = tested on: XF498

## N=C(N)NS(=O)(=O)c1ccc(NCc2c3ccccc3nc3ccccc23)cc1
HCT-116
  GI50: 3.01 µM (inactive)
Malme-3M
  GI50: 4.75 µM (inactive)
SF-295
  GI50: 2.45 µM (inactive)
RXF 631
  GI50: 4.82 µM (inactive)
OVCAR-4
  GI50: 39.5 µM (inactive)
786-0
  GI50: 1.07 µM (active)
DU-145
  GI50: 1.83 µM (inactive)
HL-60
  GI50: 0.0679 µM (active)
PC-3
  GI50: 16.1 µM (inactive)
SR
  GI50: 0.0363 µM (active)
OVCAR-5
  GI50: 33.3 µM (inactive)
ACHN
  GI50: 1.39 µM (inactive)
NCI-H522
  GI50: 2.28 µM (inactive)
HOP-18
  GI50: 9.18 µM (inactive)
CAKI-1
  GI50: 4.34 µM (inactive)
RXF 393
  GI50: 11.9 µM (inactive)
SNB-75
  GI50: 0.608 µM (active)
SNB-19
  GI50: 0.711 µM (active)
NCI-H226
  GI50: 0.421 µM (active)
NCI-H460
  GI50: 0.0371 µM (active)
RPMI-8226
  GI50: 2.82 µM (inactive)
SK-MEL-28
  GI50: 47.3 µM (inactive)
A498
  GI50: 1.17 µM (inactive)
A549
  GI50: 0.338 µM (active)
EKVX
  GI50: 10.4 µM (inactive)
NCI-H23
  GI50: 1.09 µM (active)
UO-31
  GI50: 18.6 µM (inactive)
SK-OV-3
  GI50: 2.73 µM (inactive)
UACC-257
  GI50: 14.5 µM (inactive)
IGROV-1
  GI50: 23.4 µM (inactive)
SF-539
  GI50: 0.483 µM (active)
DMS-114
  GI50: 0.157 µM (active)
CCRF-CEM
  GI50: 0.0782 µM (active)
SW-620
  GI50: 1.59 µM (inactive)
Hs-578T
  GI50: 1.5 µM (inactive)
SK-MEL-5
  GI50: 2.62 µM (inactive)
SNB-78
  GI50: 23.1 µM (inactive)
MDA-MB-231
  GI50: 23 µM (inactive)
SN12C
  GI50: 0.637 µM (active)
HCT-15
  GI50: 40.3 µM
MDA-MB-435
  GI50: 32.6 µM (inactive)
COLO 205
  GI50: > 80.9 µM (inactive)
BT-549
  GI50: 7.16 µM (inactive)
SF-268
  GI50: 0.679 µM (active)
MCF7
  GI50: 0.0566 µM (active)
M14
  GI50: 4.67 µM (inactive)
OVCAR-3
  GI50: 11.6 µM (inactive)
LXFL 529
  GI50: 12.8 µM (inactive)
KM12
  GI50: 6.24 µM (inactive)
MOLT-4
  GI50: 0.0308 µM (active)
SK-MEL-2
  GI50: > 20 µM (inactive)
U-251
  GI50: 0.354 µM (active)
UACC-62
  GI50: 1.1 µM (active)
M19-MEL
  GI50: 10 µM (inactive)
HOP-92
  GI50: 0.24 µM (active)
K562
  GI50: 2.72 µM (inactive)
OVCAR-8
  GI50: 3.78 µM (inactive)
DLD-1
  GI50: 23.5 µM (inactive)
TK-10
  GI50: 64.1 µM (inactive)
DMS-273
  GI50: 2.1 µM (inactive)
LOX IMVI
  GI50: 0.946 µM (active)
HOP-62
  GI50: 0.678 µM (active)
HT-29
  GI50: 33.3 µM (inactive)
T47D
  GI50: 1.16 µM (inactive)
KM-20L2
  GI50: 57.9 µM (inactive)
MDA-N
  GI50: 71.1 µM (inactive)
HCC 2998
  GI50: 7.38 µM (inactive)

## CC(C)[C@H](CCl)NC(=O)c1cccc(C(=O)N[C@H](CCl)C(C)C)n1 (stereo in doubt)
HCT-116
  GI50: > 100 µM (inactive)
Malme-3M
  GI50: > 100 µM (inactive)
SF-295
  GI50: > 100 µM (inactive)
RXF 631
  GI50: > 100 µM (inactive)
OVCAR-4
  GI50: > 100 µM (inactive)
786-0
  GI50: > 100 µM (inactive)
HL-60
  GI50: > 100 µM (inactive)
SR
  GI50: > 100 µM (inactive)
OVCAR-5
  GI50: > 100 µM (inactive)
ACHN
  GI50: > 100 µM (inactive)
NCI-H522
  GI50: > 100 µM (inactive)
CAKI-1
  GI50: > 100 µM (inactive)
RXF 393
  GI50: > 100 µM (inactive)
SNB-75
  GI50: > 100 µM (inactive)
SNB-19
  GI50: > 100 µM (inactive)
NCI-H226
  GI50: > 100 µM (inactive)
NCI-H460
  GI50: > 100 µM (inactive)
RPMI-8226
  GI50: > 100 µM (inactive)
SK-MEL-28
  GI50: > 100 µM (inactive)
A498
  GI50: 78.7 µM (inactive)
A549
  GI50: > 100 µM (inactive)
EKVX
  GI50: > 100 µM (inactive)
NCI-H23
  GI50: > 100 µM (inactive)
UO-31
  GI50: > 100 µM (inactive)
SK-OV-3
  GI50: > 100 µM (inactive)
IGROV-1
  GI50: > 100 µM (inactive)
SF-539
  GI50: > 100 µM (inactive)
DMS-114
  GI50: > 100 µM (inactive)
CCRF-CEM
  GI50: > 100 µM (inactive)
SW-620
  GI50: > 100 µM (inactive)
XF498
  GI50: > 100 µM (inactive)
SK-MEL-5
  GI50: > 100 µM (inactive)
SNB-78
  GI50: > 100 µM (inactive)
SN12C
  GI50: > 100 µM (inactive)
HCT-15
  GI50: > 100 µM
COLO 205
  GI50: > 100 µM (inactive)
SF-268
  GI50: > 100 µM (inactive)
M14
  GI50: > 100 µM (inactive)
OVCAR-3
  GI50: > 100 µM (inactive)
LXFL 529
  GI50: > 100 µM (inactive)
KM12
  GI50: > 100 µM (inactive)
MOLT-4
  GI50: > 100 µM (inactive)
U-251
  GI50: > 100 µM (inactive)
M19-MEL
  GI50: > 100 µM (inactive)
HOP-92
  GI50: > 100 µM (inactive)
K562
  GI50: > 100 µM (inactive)
DLD-1
  GI50: > 100 µM (inactive)
TK-10
  GI50: > 100 µM (inactive)
DMS-273
  GI50: > 100 µM (inactive)
LOX IMVI
  GI50: > 100 µM (inactive)
HOP-62
  GI50: > 100 µM (inactive)
HT-29
  GI50: > 100 µM (inactive)
KM-20L2
  GI50: > 100 µM (inactive)
HCC 2998
  GI50: > 100 µM (inactive)

## N#C/C(=C\c1cccc(O)c1)C(N)=O
HCT-116
  GI50: > 100 µM (inactive)
Malme-3M
  GI50: > 100 µM (inactive)
SF-295
  GI50: > 100 µM (inactive)
RXF 631
  GI50: > 100 µM (inactive)
OVCAR-4
  GI50: > 100 µM (inactive)
786-0
  GI50: > 100 µM (inactive)
HL-60
  GI50: 20.9 µM (inactive)
OVCAR-5
  GI50: > 100 µM (inactive)
ACHN
  GI50: > 100 µM (inactive)
NCI-H522
  GI50: > 100 µM (inactive)
CAKI-1
  GI50: > 100 µM (inactive)
RXF 393
  GI50: 61.4 µM (inactive)
SNB-75
  GI50: 22.3 µM (inactive)
SNB-19
  GI50: > 100 µM (inactive)
NCI-H226
  GI50: > 100 µM (inactive)
NCI-H460
  GI50: > 100 µM (inactive)
RPMI-8226
  GI50: > 100 µM (inactive)
SK-MEL-28
  GI50: > 100 µM (inactive)
A498
  GI50: > 100 µM (inactive)
A549
  GI50: > 100 µM (inactive)
EKVX
  GI50: > 100 µM (inactive)
NCI-H23
  GI50: > 100 µM (inactive)
UO-31
  GI50: > 100 µM (inactive)
SK-OV-3
  GI50: > 100 µM (inactive)
UACC-257
  GI50: > 100 µM (inactive)
IGROV-1
  GI50: > 100 µM (inactive)
SF-539
  GI50: > 100 µM (inactive)
DMS-114
  GI50: > 100 µM (inactive)
CCRF-CEM
  GI50: > 100 µM (inactive)
SW-620
  GI50: > 100 µM (inactive)
XF498
  GI50: > 100 µM (inactive)
SK-MEL-5
  GI50: > 100 µM (inactive)
SNB-78
  GI50: > 100 µM (inactive)
SN12C
  GI50: > 100 µM (inactive)
HCT-15
  GI50: > 100 µM
COLO 205
  GI50: > 100 µM (inactive)
SF-268
  GI50: > 100 µM (inactive)
M14
  GI50: > 100 µM (inactive)
OVCAR-3
  GI50: > 100 µM (inactive)
LXFL 529
  GI50: > 100 µM (inactive)
KM12
  GI50: > 100 µM (inactive)
MOLT-4
  GI50: > 100 µM (inactive)
SK-MEL-2
  GI50: > 100 µM (inactive)
U-251
  GI50: > 100 µM (inactive)
UACC-62
  GI50: > 100 µM (inactive)
M19-MEL
  GI50: > 100 µM (inactive)
HOP-92
  GI50: > 100 µM (inactive)
K562
  GI50: > 100 µM (inactive)
OVCAR-8
  GI50: > 100 µM (inactive)
DLD-1
  GI50: > 100 µM (inactive)
TK-10
  GI50: > 100 µM (inactive)
DMS-273
  GI50: > 100 µM (inactive)
LOX IMVI
  GI50: > 100 µM (inactive)
HOP-62
  GI50: > 100 µM (inactive)
HT-29
  GI50: > 100 µM (inactive)
KM-20L2
  GI50: > 100 µM (inactive)
HCC 2998
  GI50: > 100 µM (inactive)
